For 10 compounds, GI50 and TGI results are on record in PubChem BioAssay (NCI).

Among the test systems are LOX IMVI melanoma; ACHN renal; MOLT-4 leukemia; UACC-62 melanoma; UACC-257 melanoma; SR leukemia; KM12 colon; SNB-19 CNS; DU-145 prostate; TK-10 renal.
What all share (test): growth of human tumour cells (NCI), 48 h

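How tested: cells in 96-well plates exposed to compound for 48 hours at five concentrations. At the GI50, growth is halved. The concentration for full growth arrest is given as TGI.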

Regarding `COc1cc(-c2nc3sccn3c2-c2ccnc(NCCNS(=O)(=O)c3ccc(Cl)cc3)n2)ccc1F`, the GI50 was 3.39 µM in the assay with LOX IMVI melanoma; 2.77 µM in the assay with ACHN renal; 1.42 µM in the assay on MOLT-4 leukemia; 1.39 µM in the assay on UACC-62 melanoma; 4.47 µM with UACC-257 melanoma; 3.94 µM in the assay with SR leukemia. The GI50 in the assay on KM12 colon was 4.26 µM; in the assay with SNB-19 CNS, 74 µM; in the assay with DU-145 prostate, 3.62 µM; in the assay with TK-10 renal, 9.44 µM. Also, the TGI in the assay on LOX IMVI melanoma was more than 100 µM; with ACHN renal, more than 100 µM; in the assay on MOLT-4 leukemia, more than 100 µM; with UACC-62 melanoma it was 5.2 µM; in the assay with UACC-257 melanoma, more than 100 µM; in the assay on SR leukemia, more than 100 µM. In addition, the TGI in the assay on KM12 colon, in the assay on SNB-19 CNS, in the assay on DU-145 prostate and in the assay with TK-10 renal was more than 100 µM each time.

On to `CCCCOc1ccc(NC(=O)n2nc(N)c3ccccc32)cc1`, for which the GI50 in the assay with LOX IMVI melanoma is 11.6 µM; in the assay on ACHN renal, 22.7 µM; in the assay with MOLT-4 leukemia, 0.921 µM; with UACC-62 melanoma, 14.7 µM; in the assay on UACC-257 melanoma, 24.8 µM; in the assay on SR leukemia it was 16 µM. The GI50 with KM12 colon is 13.2 µM; in the assay on SNB-19 CNS, 52 µM; in the assay with DU-145 prostate it was 19.8 µM; with TK-10 renal, 26.9 µM. Moreover, the TGI in the assay on LOX IMVI melanoma is 24.2 µM; in the assay on ACHN renal it was more than 89.4 µM; in the assay on MOLT-4 leukemia, 34.8 µM; with UACC-62 melanoma, 38.3 µM; with UACC-257 melanoma, 73.5 µM; in the assay with SR leukemia, 39.5 µM. Moreover, the TGI with KM12 colon was 54.2 µM; in the assay on SNB-19 CNS, more than 100 µM; with DU-145 prostate it was 70 µM; with TK-10 renal, more than 73.5 µM.

Turning to `COc1cc2cc(C(=O)CCC(=O)O)sc2cc1OC`, the GI50 is more than 100 µM with LOX IMVI melanoma; more than 100 µM in the assay with ACHN renal; more than 100 µM with MOLT-4 leukemia; more than 100 µM with UACC-62 melanoma; 33.4 µM in the assay on UACC-257 melanoma; 3.53 µM in the assay with SR leukemia. The GI50 in the assay on KM12 colon, in the assay with SNB-19 CNS, with DU-145 prostate and in the assay on TK-10 renal was more than 100 µM throughout. Also, the TGI in the assay with LOX IMVI melanoma, in the assay with ACHN renal, in the assay with MOLT-4 leukemia, with UACC-62 melanoma, in the assay with UACC-257 melanoma and in the assay on SR leukemia was more than 100 µM in each case. In addition, the TGI in the assay with KM12 colon, in the assay on SNB-19 CNS, in the assay with DU-145 prostate and in the assay on TK-10 renal was more than 100 µM throughout.

With `Cc1nc(-c2ccccc2)c(Cc2ccccc2O)c(=O)[nH]1`, the TGI with LOX IMVI melanoma, with ACHN renal, in the assay on MOLT-4 leukemia, in the assay with UACC-62 melanoma, in the assay with UACC-257 melanoma and with SR leukemia was more than 100 µM throughout. Moreover, the TGI in the assay with KM12 colon, in the assay with SNB-19 CNS, with DU-145 prostate and with TK-10 renal was more than 100 µM each time.

Take `CC(C)c1c(C(=O)Nc2ccccc2)c(-c2ccccc2)c(-c2ccc(F)cc2)n1CC[C@@H]1CC=CC(=O)O1`: the GI50 in the assay on LOX IMVI melanoma was 1.63 µM; in the assay on ACHN renal, 1.57 µM; in the assay on MOLT-4 leukemia it was 2.62 µM; with UACC-62 melanoma, 1.7 µM; in the assay on UACC-257 melanoma, 1.97 µM; with SR leukemia, 2.66 µM. The GI50 is 1.65 µM in the assay with KM12 colon, 1.7 µM in the assay on SNB-19 CNS, 1.84 µM in the assay with DU-145 prostate and 2.18 µM in the assay on TK-10 renal. Also, the TGI was 3.06 µM in the assay with LOX IMVI melanoma; 2.92 µM in the assay with ACHN renal; 6.98 µM in the assay on MOLT-4 leukemia; 3.37 µM in the assay with UACC-62 melanoma; 3.92 µM in the assay with UACC-257 melanoma; 9.49 µM in the assay with SR leukemia. Also, the TGI was found to be 3.24 µM in the assay on KM12 colon, 3.13 µM with SNB-19 CNS, 3.27 µM in the assay on DU-145 prostate and 4.67 µM with TK-10 renal.

For `N#Cc1ncc(-c2ccc(C(F)(F)F)cc2)c(NCc2cc(C(F)(F)F)cc(C(F)(F)F)c2)n1`, the GI50 is 3.02 µM with LOX IMVI melanoma; 3.62 µM in the assay on ACHN renal; 3.17 µM in the assay with MOLT-4 leukemia; 3.93 µM in the assay on UACC-62 melanoma; 3.06 µM in the assay with UACC-257 melanoma; 2.97 µM in the assay with SR leukemia. The GI50 with KM12 colon was 3.17 µM; with SNB-19 CNS, 4.84 µM; in the assay on DU-145 prostate, 5.19 µM; in the assay on TK-10 renal, 5.84 µM. In addition, the TGI was 16.5 µM in the assay on LOX IMVI melanoma; more than 100 µM with ACHN renal; 9.79 µM in the assay with MOLT-4 leukemia; more than 100 µM with UACC-62 melanoma; 9.92 µM in the assay on UACC-257 melanoma; 13.8 µM with SR leukemia. The TGI is 10.1 µM in the assay on KM12 colon, 63.3 µM in the assay on SNB-19 CNS, more than 100 µM in the assay on DU-145 prostate and 56 µM in the assay on TK-10 renal.

On to `CC(=O)N1N=C(c2ccc(Nc3nc(Nc4ccc(Cl)cc4)nc(Nc4ccc(Cl)cc4)n3)cc2)CC1c1ccc([N+](=O)[O-])cc1` (centres undefined), for which the GI50 with LOX IMVI melanoma is 5.66 µM; in the assay on ACHN renal it was 5.49 µM; in the assay on MOLT-4 leukemia, 1.92 µM; in the assay with UACC-62 melanoma, 11.9 µM; in the assay on UACC-257 melanoma it was 11.4 µM; with SR leukemia, 2.66 µM. In addition, the GI50 is 5.72 µM in the assay on KM12 colon, 3.8 µM with SNB-19 CNS, 5.56 µM in the assay with DU-145 prostate and 12.2 µM in the assay with TK-10 renal. Moreover, the TGI with LOX IMVI melanoma is more than 47.1 µM; in the assay with ACHN renal, more than 100 µM; in the assay on MOLT-4 leukemia, 8.35 µM; with UACC-62 melanoma it was 34.9 µM; with UACC-257 melanoma it was more than 72.4 µM; in the assay with SR leukemia, 20.5 µM. In addition, the TGI was more than 62.4 µM in the assay with KM12 colon, 38.7 µM with SNB-19 CNS, more than 54.9 µM in the assay on DU-145 prostate and more than 75.3 µM in the assay on TK-10 renal.

For `CCC[CH2][Sn]([CH2]CCC)([O]C(=O)c1cc(F)ccc1F)[O][Sn]([CH2]CCC)([CH2]CCC)[O]C(=O)c1cc(F)ccc1F`, the GI50 in the assay on LOX IMVI melanoma was 0.132 µM; in the assay on ACHN renal, 0.251 µM; with MOLT-4 leukemia, 0.111 µM; with UACC-62 melanoma, 0.206 µM; in the assay with UACC-257 melanoma, 0.255 µM; in the assay on SR leukemia it was 0.14 µM. For the same compound, the GI50 in the assay on KM12 colon was 0.999 µM; in the assay with SNB-19 CNS it was 0.667 µM; in the assay on DU-145 prostate, 0.646 µM; with TK-10 renal, 0.226 µM. Further, the TGI with LOX IMVI melanoma is 0.306 µM; in the assay with ACHN renal, 0.738 µM; in the assay on UACC-62 melanoma, 0.665 µM; with UACC-257 melanoma it was 1.21 µM; in the assay with SR leukemia, more than 22.3 µM; in the assay with KM12 colon, 2.32 µM. Besides, the TGI in the assay on SNB-19 CNS stood at 1.76 µM; with DU-145 prostate, 1.92 µM; in the assay on TK-10 renal, 0.616 µM.

As to `O=C(Nc1ccc(F)cc1)Nc1ccccc1CNc1nc(Nc2ccc(OCCN3CCCC3)cc2)ncc1Cl`, the GI50 in the assay on LOX IMVI melanoma is 0.914 µM; with ACHN renal it was 1.26 µM; with MOLT-4 leukemia it was 1.53 µM; in the assay on UACC-62 melanoma it was 0.968 µM; with UACC-257 melanoma it was 1.07 µM; with SR leukemia, 1.81 µM. Further, the GI50 in the assay with KM12 colon was 1.81 µM; in the assay on SNB-19 CNS, 3 µM; in the assay on DU-145 prostate, 2.48 µM; in the assay on TK-10 renal, 1.77 µM. In addition, the TGI in the assay on LOX IMVI melanoma came to 1.69 µM; with ACHN renal it was 3.15 µM; in the assay with MOLT-4 leukemia, 4.74 µM; with UACC-62 melanoma it was 2.04 µM; in the assay with UACC-257 melanoma, 2.35 µM; in the assay with SR leukemia, 50 µM. In addition, the TGI in the assay on KM12 colon was found to be 6.35 µM; in the assay with SNB-19 CNS, 11.1 µM; in the assay with DU-145 prostate it was 8.06 µM; in the assay on TK-10 renal, 6.8 µM.

For the compound `O=c1c2c3c(sc2n2c(-c4cc(-c5ccccc5)no4)nnc2n1Cc1ccccc1)CCCC3`, the GI50 with LOX IMVI melanoma is 7.76 µM; in the assay on ACHN renal, 9.32 µM; with MOLT-4 leukemia, 3.72 µM; with UACC-62 melanoma, 17.1 µM; in the assay on UACC-257 melanoma, 23.9 µM; with SR leukemia it was 4.94 µM. Besides, the GI50 was 15.8 µM with KM12 colon, 31.8 µM in the assay on SNB-19 CNS, 19.6 µM in the assay on DU-145 prostate and 21.5 µM in the assay on TK-10 renal. The TGI is more than 62.4 µM in the assay on LOX IMVI melanoma; more than 100 µM in the assay on ACHN renal; 32.7 µM in the assay with MOLT-4 leukemia; 44 µM with UACC-62 melanoma; more than 74 µM in the assay with UACC-257 melanoma; more than 42 µM in the assay on SR leukemia. Besides, the TGI in the assay on KM12 colon is 55.2 µM; in the assay on SNB-19 CNS, more than 100 µM; with DU-145 prostate it was more than 93.3 µM; in the assay on TK-10 renal it was more than 82.8 µM.
